The values that follow come from patent US10752587B2, “Homobispiperidinyl derivatives as liver X receptor beta agonists, compositions and their use” (Merck Sharp & Dohme Corp., priority 2015, dated 2020).

Assay [1] concerns the target T1, glutathione-S-transferase (GST) tagged LXRalpha LBD (ligand binding domain) (Homo sapiens, UniProt Q13133).
T1 construct: purchased Invitrogen pv4655
T1 sequence (Q13133 209-447 limits assumed): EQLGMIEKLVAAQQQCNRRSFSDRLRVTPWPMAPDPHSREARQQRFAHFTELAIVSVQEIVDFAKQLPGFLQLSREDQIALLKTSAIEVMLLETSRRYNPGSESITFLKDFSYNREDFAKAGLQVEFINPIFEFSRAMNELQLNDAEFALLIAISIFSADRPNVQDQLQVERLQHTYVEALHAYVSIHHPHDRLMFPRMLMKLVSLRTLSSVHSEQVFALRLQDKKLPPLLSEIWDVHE
Nature of the assay: LanthaScreen TR-FRET Liver X Receptor Coactivator Assay, co-activator recruitment to LXRalpha LBD. Particulars: for Emax / LXR alpha Activity @ max dose (%): efficacy at max dose, in relation to reference dual agonist T0901317; for Emax: read-out: LXR alpha Activity @ max dose (%); for LXR alpha IP (nM) / EC50: potency (Inflection Point, IP), co-activator recruitment to LXRalpha LBD, in relation to T0901317; for EC50: read-out: LXR alpha IP. The class given is biochemical. An outline of the steps:
(§1)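 GST-tagged LBD added to test compound, then fluorescein-labelled coactivator peptide plus terbium anti-GST antibody; incubated at room temperature, TR-FRET read. Potency given as inflection point and efficacy as Emax relative to reference dual agonist T0901317.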

For assay [2], the target named is T2, glutathione-S-transferase (GST) tagged LXRbeta LBD (ligand binding domain) (Homo sapiens, UniProt P55055).
T2 construct: purchased Invitrogen pv4658.pps
T2 sequence (P55055 222-460 limits assumed): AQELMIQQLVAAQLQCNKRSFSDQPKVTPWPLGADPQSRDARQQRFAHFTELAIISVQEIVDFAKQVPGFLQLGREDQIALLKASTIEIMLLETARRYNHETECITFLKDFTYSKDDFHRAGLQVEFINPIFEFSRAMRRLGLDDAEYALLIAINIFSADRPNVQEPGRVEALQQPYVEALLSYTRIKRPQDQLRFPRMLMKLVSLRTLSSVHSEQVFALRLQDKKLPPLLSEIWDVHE
Nature of the assay: LanthaScreen TR-FRET Liver X Receptor Coactivator Assay, co-activator recruitment to LXRbeta LBD. The class given is biochemical. Particulars: for Emax / LXR beta Activity @ max dose (%): efficacy at max dose, in relation to reference dual agonist T0901317; for Emax: read-out: LXR beta Activity @ max dose (%); for EC50: potency (Inflection Point, IP), co-activator recruitment to LXRbeta LBD, in relation to T0901317, read-out: LXR beta IP. An outline of the steps: as §1

With `COc1cc(Cl)cc([C@@](O)(C(=O)N2CCC(CC3CCN(c4ccc(C(=O)N(C)C)cc4)CC3)CC2)C(F)(F)F)c1` [Example 2-138, 4-[4-({1-[(2R)-2-(3-chloro-5-methoxyphenyl)-3,3,3-trifluoro-2-hydroxy-propanoyl]piperidin-4-yl}methyl)piperidin-1-yl]-N,N-dimethyl-benzamide], in assay [1], the Emax was 0% and the “LXR alpha IP (nM)” value is given as “NO IP”. In assay [2], the Emax turned out to be 35% and the EC50 was 74 nM.
As for `CN(C)C(=O)c1ccc(N2CCC(CC3CCN(C(=O)[C@](O)(c4cc(F)cc(Cl)c4)C(F)(F)F)CC3)CC2)cc1` [Example 2-139, 4-[4-({1-[(2R)-2-(3-chloro-5-fluorophenyl)-3,3,3-trifluoro-2-hydroxy-propanoyl]piperidin-4-yl}methyl)piperidin-1-yl]-N,N-dimethyl-benzamide], the Emax in assay [1] worked out at 36%; in assay [2], 95%. Moreover, the EC50 stood at 266 nM in assay [1] and 14 nM in assay [2].
For `CN(C)C(=O)c1ccc(N2CCC(CC3CCN(C(=O)[C@](O)(c4ccccc4)C(F)(F)C(F)(F)F)CC3)CC2)cc1` [Example 2-140, N,N-dimethyl-4-[4-({1-[(2R)-3,3,4,4,4-pentafluoro-2-hydroxy-2-phenylbutanoyl]piperidin-4-yl}methyl)piperidin-1-yl]benzamide], in assay [1], the Emax amounted to 43% and the EC50 amounted to 836 nM. In assay [2], the Emax is 118% and the EC50 was found to be 84 nM.
As for `CCc1cccc([C@@](O)(C(=O)N2CCC(CC3CCN(c4ccc(C(=O)N(C)C)cc4)CC3)CC2)C(F)(F)F)c1` [Example 2-141, 4-[4-({1-[(2R)-2-(3-ethyl-phenyl)-3,3,3-trifluoro-2-hydroxy-propanoyl]piperidin-4-yl}methyl)piperidin-1-yl]-N,N-dimethyl-benzamide], in assay [1], the Emax was 12% and the “LXR alpha IP (nM)” value is “NO IP”. For the same compound, in assay [2], the Emax worked out at 51% and the EC50 is 74 nM.
Consider `CN(C)C(=O)c1ccc(N2CCC(CC3CCN(C(=O)[C@](O)(c4cc(Cl)cc(Cl)c4)C(F)(F)F)CC3)CC2)cc1` [Example 2-142, 4-[4-({1-[(2R)-2-(3,5-dichloro-phenyl)-3,3,3-trifluoro-2-hydroxy-propanoyl]piperidin-4-yl}methyl)piperidin-1-yl]-N,N-dimethyl-benzamide], for which, in assay [1], the “LXR alpha Activity @ max dose (%)” value turned out to be 4% and the “LXR alpha IP (nM)” value was “NO IP”. In assay [2], the “LXR beta Activity @ max dose (%)” value was 60% and the EC50 came to 60 nM.
Take `CN(C)C(=O)c1ccc(N2CCC(CC3CCN(C(=O)[C@](O)(c4cccc(Br)c4)C(F)(F)F)CC3)CC2)cc1` [Example 2-143, 4-[4-({1-[(2R)-2-(3-bromo-phenyl)-3,3,3-trifluoro-2-hydroxy-propanoyl]piperidin-4-yl}methyl)piperidin-1-yl]-N,N-dimethyl-benzamide]: in assay [1], the Emax was 23% and the EC50 came to 413 nM. Further, in assay [2], the Emax was found to be 69% and the EC50 was determined as 46 nM.
Regarding `CN(C)C(=O)c1ccc(N2CCC(CC3CCN(C(=O)[C@](O)(c4cccc(OC(F)(F)F)c4)C(F)(F)F)CC3)CC2)cc1` [Example 2-144, N,N-dimethyl-4-{4-[(1-{(2R)-3,3,3-trifluoro-2-hydroxy-2-[3-(trifluoro-methoxy)phenyl]propanoyl}piperidin-4-yl)methyl]piperidin-1-yl}benzamide], in assay [1], the Emax is 14% and the “LXR alpha IP (nM)” value is “NO IP”. Further, in assay [2], the Emax worked out at 55% and the EC50 turned out to be 78 nM.
Taken in the same sequence, the figures for `CCOc1cccc([C@@](O)(C(=O)N2CCC(CC3CCN(c4ccc(C(=O)N(C)C)cc4)CC3)CC2)C(F)(F)F)c1` [Example 2-145, 4-[4-({1-[(2R)-2-(3-ethoxy-phenyl)-3,3,3-trifluoro-2-hydroxy-propanoyl]piperidin-4-yl}methyl)piperidin-1-yl]-N,N-dimethyl-benzamide] were 4%, “NO IP”, 54% and 73 nM.
On to `CN(C)C(=O)c1ccc(N2CCC(CC3CCN(C(=O)[C@](O)(c4cccc(Cl)c4)C(F)(F)F)CC3)CC2)cc1` [Example 2-146, 4-[4-({1-[(2R)-2-(3-chloro-phenyl)-3,3,3-trifluoro-2-hydroxy-propanoyl]piperidin-4-yl}methyl)piperidin-1-yl]-N,N-dimethyl-benzamide], for which, in assay [1], the “LXR alpha Activity @ max dose (%)” value was determined as 10% and the “LXR alpha IP (nM)” value is given as “NO IP”. For the same compound, in assay [2], the “LXR beta Activity @ max dose (%)” value was 64% and the EC50 came to 33 nM.
As for `Cc1cc(N2CCC(CC3CCN(C(=O)[C@](O)(c4cccc(OC(C)C)c4)C(F)(F)F)CC3)CC2)ccc1C(=O)N(C)C` [Example 2-147, N,N,2-trimethyl-4-{4-[(1-{(2R)-3,3,3-trifluoro-2-hydroxy-2-[3-(1-methylethoxy)phenyl]propanoyl}piperidin-4-yl)methyl]piperidin-1-yl}benzamide], in assay [1], the Emax came out at 7% and the “LXR alpha IP (nM)” value was “NO IP”. In assay [2], the Emax was determined as 52% and the EC50 stood at 19 nM.
For `Cc1cc(N2CCC(CC3CCN(C(=O)[C@](O)(c4cccc(C(F)(F)F)c4)C(F)(F)F)CC3)CC2)ccc1C(=O)N(C)C` [Example 2-148, N,N,2-trimethyl-4-{4-[(1-{(2R)-3,3,3-trifluoro-2-hydroxy-2-[3-(trifluoromethyl)phenyl]propanoyl}piperidin-4-yl)methyl]piperidin-1-yl}benzamide], in assay [1], the Emax stood at 22% and the EC50 is 400 nM. In assay [2], the Emax was 62% and the EC50 was 24 nM.
Turning to `Cc1cc(N2CCC(CC3CCN(C(=O)[C@](O)(c4cccc(C(C)C)c4)C(F)(F)F)CC3)CC2)ccc1C(=O)N(C)C` [Example 2-149, N,N,2-trimethyl-4-{4-[(1-{(2R)-3,3,3-trifluoro-2-hydroxy-2-[3-(1-methyl-ethyl)phenyl]propanoyl}piperidin-4-yl)methyl]piperidin-1-yl}benzamide], in assay [1], the Emax was 14% and the “LXR alpha IP (nM)” value is “NO IP”. For the same compound, in assay [2], the Emax was determined as 54% and the EC50 is 20 nM.
With `Cc1cc(N2CCC(CC3CCN(C(=O)[C@](O)(c4cccc(OC(F)(F)F)c4)C(F)(F)F)CC3)CC2)ccc1C(=O)N(C)C` [Example 2-150, N,N,2-trimethyl-4-{4-[(1-{(2R)-3,3,3-trifluoro-2-hydroxy-2-[3-(trifluoromethoxy)phenyl]propanoyl}piperidin-4-yl)methyl]piperidin-1-yl}benzamide], in assay [1], the Emax came out at 15% and the “LXR alpha IP (nM)” value is on record as “NO IP”. Also, in assay [2], the Emax worked out at 56% and the EC50 came to 23 nM.
On to `CCOc1cccc([C@@](O)(C(=O)N2CCC(CC3CCN(c4ccc(C(=O)N(C)C)c(C)c4)CC3)CC2)C(F)(F)F)c1` [Example 2-151, 4-[4-({1-[(2R)-2-(3-ethoxy-phenyl)-3,3,3-trifluoro-2-hydroxy-propanoyl]piperidin-4-yl}methyl)piperidin-1-yl]-N,N,2-trimethyl-benzamide], for which, in assay [1], the Emax was 4% and the “LXR alpha IP (nM)” value is “NO IP”. For the same compound, in assay [2], the Emax stood at 45% and the EC50 was determined as 9 nM.
Taken in the same sequence, the figures for `COc1cc(F)cc([C@@](O)(C(=O)N2CCC(CC3CCN(c4ccc(C(=O)N(C)C)c(C)c4)CC3)CC2)C(F)(F)F)c1` [Example 2-152, N,N,2-trimethyl-4-[4-({1-[(2R)-3,3,3-trifluoro-2-(3-fluoro-5-methoxyphenyl)-2-hydroxy-propanoyl]piperidin-4-yl}methyl)piperidin-1-yl]benzamide] were 18%, “NO IP”, 74% and 11 nM.
In the case of `Cc1cc(N2CCC(CC3CCN(C(=O)[C@](O)(c4cc(F)cc(Cl)c4)C(F)(F)F)CC3)CC2)ccc1C(=O)N(C)C` [Example 2-153, 4-[4-({1-[(2R)-2-(3-chloro-5-fluorophenyl)-3,3,3-trifluoro-2-hydroxy-propanoyl]piperidin-4-yl}methyl)piperidin-1-yl]-N,N,2-trimethyl-benzamide], in assay [1], the Emax came out at 41% and the EC50 was 123 nM. In assay [2], the Emax stood at 95% and the EC50 is 8 nM.
Regarding `Cc1cc(N2CCC(CC3CCN(C(=O)[C@](O)(c4cc(Cl)cc(Cl)c4)C(F)(F)F)CC3)CC2)ccc1C(=O)N(C)C` [Example 2-154, 4-[4-({1-[(2R)-2-(3,5-dichloro-phenyl)-3,3,3-trifluoro-2-hydroxy-propanoyl]piperidin-4-yl}methyl)piperidin-1-yl]-N,N,2-trimethyl-benzamide], in assay [1], the Emax worked out at 6% and the “LXR alpha IP (nM)” value is “NO IP”. For the same compound, in assay [2], the Emax was 54% and the EC50 stood at 23 nM.
